Assay results reported in PMC4232212 (Clinical cancer research : an official journal of the …, 2009).

Legend:
[1] = biological target: T1, CXCR1 (Homo sapiens, UniProt P25024); test: Ki calculated from IC50 by the Cheng-Prusoff equation; format: binding; details: read-out: KiCXCR1 (nmol/L)
T1 sequence (P25024 1-350): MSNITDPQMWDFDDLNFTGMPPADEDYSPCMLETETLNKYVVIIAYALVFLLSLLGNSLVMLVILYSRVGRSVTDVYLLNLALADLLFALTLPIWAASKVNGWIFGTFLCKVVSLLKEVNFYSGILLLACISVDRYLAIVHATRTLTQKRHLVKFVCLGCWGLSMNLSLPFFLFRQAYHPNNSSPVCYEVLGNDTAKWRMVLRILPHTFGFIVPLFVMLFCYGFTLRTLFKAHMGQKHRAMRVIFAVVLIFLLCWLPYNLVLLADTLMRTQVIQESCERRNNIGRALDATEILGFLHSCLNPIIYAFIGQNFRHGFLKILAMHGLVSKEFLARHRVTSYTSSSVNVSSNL

[2] = biological target: T2, CXCR2 (Homo sapiens, UniProt P25025); test: as above; format: binding; details: read-out: KiCXCR2 (nmol/L)
T2 sequence (P25025 1-360): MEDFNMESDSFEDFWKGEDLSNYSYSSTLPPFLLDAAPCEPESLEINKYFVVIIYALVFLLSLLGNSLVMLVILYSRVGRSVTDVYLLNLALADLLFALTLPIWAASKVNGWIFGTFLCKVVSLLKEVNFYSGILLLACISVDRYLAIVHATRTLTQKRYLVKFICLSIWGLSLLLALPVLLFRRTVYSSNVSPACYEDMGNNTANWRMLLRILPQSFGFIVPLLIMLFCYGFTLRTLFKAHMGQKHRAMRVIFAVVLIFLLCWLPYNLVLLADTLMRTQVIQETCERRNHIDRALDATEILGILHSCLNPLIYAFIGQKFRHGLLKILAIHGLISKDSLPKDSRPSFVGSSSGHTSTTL

For SCH-479833, the Ki [1] was 7 nmol/L and the Ki [2] was 0.17 nmol/L.
